Converted amounts (≈) assume the structure as drawn. The source made the active and inactive calls. How the calls were made is not given here.

This is an account of results in ChEMBL document CHEMBL1151292, “Antineoplastic activity and cytotoxicity of flavones, isoflavones, and flavanones” (1979).

In one assay the test system is CA-755. The assay is described as follows: In vivo antitumor activity against mouse CA-755 cells. The class given is functional, organism-based.
A further assay relates to KB. The experiment in a line: Cytotoxicity against human KB cells. The class given is functional. Conditions: read-out: ED50 (the source's name).
The next assay deals with L1210. The assay is described as follows: In vivo antitumor activity against mouse L1210 cells. The class given is functional, organism-based.
The next assay relates to CCRF S-180. The assay is described as follows: In vivo antitumor activity against mouse S180 cells. The class given is functional, organism-based.

As to `O=c1cc(-c2cccc([N+](=O)[O-])c2)oc2ccccc12`, the outcome in the assay on CA-755, in the assay on L1210 and in the assay with CCRF S-180 was inactive. In addition, the EC50 in the assay with KB was 2 µg/mL (≈ 7.48 µM).
Turning to `COc1ccc(C2CC(=O)c3cc(OC)ccc3O2)cc1` (stereo unspecified), the outcome in the assay with CA-755, with L1210 and with CCRF S-180 was inactive.
Regarding `Nc1c(-c2ccccc2)oc2ccccc2c1=O`, the outcome with CA-755, in the assay on L1210 and in the assay on CCRF S-180 was inactive. Besides, the EC50 in the assay with KB was > 100 µg/mL.
With `O=c1cc(-c2ccc(O)cc2)oc2ccccc12`, the outcome with CA-755, in the assay with L1210 and with CCRF S-180 was inactive.
Turning to `O=C1CC(c2ccccc2Cl)Oc2ccccc21` (stereo unspecified), the outcome in the assay with CA-755, in the assay with L1210 and in the assay on CCRF S-180 was inactive.
In the case of `O=C1c2ccc(O)cc2OC(c2cc(O)c(O)c(O)c2)C1O` (stereo unspecified) [DIHYDROBINETIN], the outcome in the assay on CA-755, in the assay on L1210 and in the assay with CCRF S-180 was inactive. In addition, in the assay on KB, the EC50 was 23 µg/mL (≈ 75.6 µM).
With `COc1cc(O)c2c(=O)c(O)c(-c3ccc(O)c(O)c3)oc2c1`, the outcome in the assay on CA-755, in the assay on L1210 and in the assay on CCRF S-180 was inactive.
In the case of `COc1cc(OC)c(-c2cc(=O)c3ccccc3o2)cc1Br`, the result with CA-755 and in the assay with CCRF S-180 was inactive.
Turning to `O=C1CC(c2ccc(Cl)cc2)Oc2ccc(Cl)cc21` (stereo unspecified), the result in the assay on CA-755, in the assay with L1210 and in the assay with CCRF S-180 was inactive.
As for `COc1ccc(C2CC(=O)c3c(cc(OC)c(O)c3OC)O2)cc1` (stereo unspecified), the outcome in the assay on CA-755, in the assay on L1210 and with CCRF S-180 was inactive.
For the molecule `O=c1cc(-c2ccccc2)oc2ccccc12`, the result with CA-755, with L1210 and in the assay with CCRF S-180 was inactive.
Turning to `COc1cc2oc(-c3ccc(O)cc3)cc(=O)c2c(OC)c1OC`, the result in the assay on CA-755, with L1210 and in the assay with CCRF S-180 was inactive. Also, the EC50 in the assay on KB came out at 19 µg/mL (≈ 57.9 µM).
`CCOc1ccc(-c2cc(=O)c3c(OC)c(OC)c(OC)c(OC)c3o2)cc1`: the EC50 with KB was 30 µg/mL (≈ 77.6 µM). Moreover, the result in the assay on L1210 and in the assay on CCRF S-180 was inactive.
As for `CS(=O)(=O)NC1C(=O)c2ccccc2OC1c1ccccc1` (stereo unspecified), the EC50 in the assay on KB was determined as 10 µg/mL (≈ 31.5 µM). The result with L1210 and with CCRF S-180 was inactive.
On to `O=C1CC(c2ccccc2Cl)Oc2ccc(Cl)cc21` (stereo unspecified), for which the outcome with CA-755, with L1210 and in the assay with CCRF S-180 was inactive.
As to `COc1ccc2c(=O)c(N(S(C)(=O)=O)S(C)(=O)=O)c(-c3ccccc3)oc2c1CN(C)C`, the result with CA-755, in the assay on L1210 and with CCRF S-180 was inactive. Moreover, the EC50 with KB was > 100 µg/mL.
On to `COc1ccc(C2CC(=O)c3ccccc3O2)cc1` (stereo unspecified), for which the result in the assay with CA-755, in the assay on L1210 and in the assay with CCRF S-180 was inactive.
As to `COc1ccc(C2CC(=O)c3ccccc3O2)cc1OC` (stereo unspecified), the result with CA-755, in the assay on L1210 and with CCRF S-180 was inactive.
As for `COc1cc2c(c(OC)c1OC)C(=O)CC(c1ccc(O)cc1)O2` (stereo unspecified), the result in the assay on CA-755, in the assay with L1210 and in the assay on CCRF S-180 was inactive.
As for `COc1c(OC)c(OC)c2c(c1OC)OC(c1ccc(O)cc1)CC2=O` (stereo unspecified), the outcome in the assay with CA-755, in the assay with L1210 and with CCRF S-180 was inactive. Besides, the EC50 in the assay on KB worked out at 26 µg/mL (≈ 72.1 µM).
For the molecule `COc1ccc(-c2oc3cc(O)cc(O)c3c(=O)c2OC)cc1`, the result in the assay with CA-755 was Active. The result in the assay with L1210 and with CCRF S-180 was inactive.
For the molecule `O=C1C[C@@H](c2ccccc2)Oc2cc(O)cc(O)c21`, the result in the assay with CA-755, in the assay on L1210 and in the assay with CCRF S-180 was inactive.
As to `O=C1CC(c2cccc(Cl)c2)Oc2ccccc21` (stereo unspecified), in the assay with CA-755, the outcome was Active. In addition, the result in the assay on L1210 and in the assay with CCRF S-180 was inactive.
In the case of `CC(=O)Oc1cc(O)c2c(=O)c(OC(C)=O)c(-c3ccc(OC(C)=O)c(OC(C)=O)c3)oc2c1`, the result in the assay with CA-755, in the assay on L1210 and in the assay on CCRF S-180 was inactive. The EC50 in the assay on KB stood at 22 µg/mL (≈ 46.8 µM).
As to `COc1ccc(-c2cc(=O)c3c(OC)c(OC)c(OC)cc3o2)cc1`, the outcome in the assay with CA-755, in the assay with L1210 and in the assay with CCRF S-180 was inactive. Moreover, the EC50 in the assay with KB was 27 µg/mL (≈ 78.9 µM).
Regarding `Cc1oc2cc(O)ccc2c(=O)c1-c1ccccc1Br`, the result with CA-755, in the assay on L1210 and with CCRF S-180 was inactive. Also, the EC50 in the assay on KB stood at 66 µg/mL (≈ 199 µM).
Turning to `O=C1CC(c2ccc(Cl)cc2)Oc2ccccc21` (stereo unspecified), the result in the assay on CA-755, with L1210 and in the assay with CCRF S-180 was inactive.
As to `COc1ccc([C@@H]2CC(=O)c3c(O)cc(O[C@@H]4O[C@H](CO[C@@H]5O[C@@H](C)[C@H](O)[C@@H](O)[C@H]5O)[C@@H](O)[C@H](O)[C@H]4O)cc3O2)cc1O`, the outcome in the assay with CA-755, with L1210 and in the assay on CCRF S-180 was inactive.
As to `COc1ccc(C2CC(=O)c3c(OC(C)=O)cc(OC(C)=O)cc3O2)cc1OC(C)=O` (stereo unspecified), the outcome with CA-755, in the assay on L1210 and in the assay on CCRF S-180 was inactive.
As for `O=c1cc(-c2ccccc2)oc2c(F)cc(F)cc12`, the EC50 in the assay on KB stood at 15 µg/mL (≈ 58.1 µM). Moreover, the outcome with L1210 and in the assay with CCRF S-180 was inactive.
Regarding `O=c1c(-c2ccc(O)cc2)coc2cc(O)cc(O)c12` [GENISTEIN], the outcome in the assay with CA-755, in the assay on L1210 and with CCRF S-180 was inactive. In the assay on KB, the EC50 was 6.7 µg/mL (≈ 24.8 µM).
As to `O=C1c2ccccc2OC(Cl)(c2ccccc2)C1Cl` (stereo unspecified), the result in the assay on CA-755, with L1210 and in the assay on CCRF S-180 was inactive.
Regarding `COc1ccc2c(c1)C(=O)CC(c1ccccc1)O2` (stereo unspecified), the outcome in the assay on CA-755 and with L1210 was inactive. Further, the result in the assay on CCRF S-180 was Active.
As to `COc1ccc(-c2cc(=O)c3c(OC)c(O)c(OC)cc3o2)cc1`, the result in the assay with CA-755, with L1210 and in the assay with CCRF S-180 was inactive.
With `Cl.NC1C(=O)c2ccccc2OC1c1ccccc1` (stereo unspecified), the outcome with CA-755, in the assay with L1210 and in the assay with CCRF S-180 was inactive. Also, in the assay on KB, the EC50 stood at 3 µg/mL.
Consider `O=C1c2ccccc2OC(c2ccccc2)C1Cl` (stereo unspecified), for which the result in the assay with CA-755 and with CCRF S-180 was inactive.
Consider `COc1cc(O)c2c(=O)c(OC)c(-c3ccc(OC)c(OC)c3)oc2c1` [RETUSIN], for which the outcome in the assay on CA-755, in the assay on L1210 and with CCRF S-180 was inactive. In the assay on KB, the EC50 stood at 41 µg/mL (≈ 114 µM).
With `COc1ccc(-c2oc3cc(OC(C)=O)cc(OC(C)=O)c3c(=O)c2OC)cc1`, in the assay on CA-755, the result was Active. The outcome with L1210 and with CCRF S-180 was inactive.
Regarding `O=C1CC(c2ccc(Cl)cc2Cl)Oc2ccc(Cl)cc21` (stereo unspecified), the outcome in the assay on CA-755, in the assay with L1210 and with CCRF S-180 was inactive.
`COc1cc2c(c(OC)c1O)C(=O)CC(c1ccc(O)cc1)O2` (stereo unspecified): the result in the assay on CA-755, in the assay on L1210 and with CCRF S-180 was inactive.
Take `COc1cc2c(c(O[C@@H]3O[C@H](CO)[C@@H](O)[C@H](O)[C@H]3O)c1)C(=O)CC(c1ccc(O)cc1)O2` (stereo partly specified): the EC50 in the assay with KB is > 100 µg/mL. For the same molecule, the result with CCRF S-180 was inactive.
On to `COc1cc(C)cc2c1OC(c1ccccc1)CC2=O.Cl` (stereo unspecified), for which the result with CA-755, in the assay on L1210 and in the assay with CCRF S-180 was inactive. Moreover, the EC50 in the assay on KB came to 26 µg/mL.
Turning to `O=C1CC(c2ccccc2)Oc2ccc(Cl)cc21` (stereo unspecified), the result in the assay on CA-755, with L1210 and with CCRF S-180 was inactive. Further, the EC50 in the assay with KB is 1 µg/mL (≈ 3.87 µM).
As to `Cc1cc(C)c(-c2oc3ccc(Cl)cc3c(=O)c2Cl)c(C)c1`, the EC50 with KB was > 100 µg/mL. Further, the outcome in the assay with CCRF S-180 was Active.
Turning to `CC(=O)Nc1c(-c2ccccc2)oc2ccccc2c1=O`, the outcome in the assay with CA-755, in the assay on L1210 and in the assay with CCRF S-180 was inactive. For the same molecule, the EC50 in the assay with KB is > 100 µg/mL.
As to `COc1ccc2c(c1)C(=O)CC(c1ccccc1OC)O2` (stereo unspecified), the outcome in the assay on CA-755, in the assay with L1210 and in the assay with CCRF S-180 was inactive. Besides, the EC50 with KB amounted to 24 µg/mL (≈ 84.4 µM).
As for `COc1ccc([C@@H]2CC(=O)c3c(O)cc(O)cc3O2)cc1O`, the result with CA-755, with L1210 and with CCRF S-180 was inactive.
For `COc1ccc(C2CC(=O)c3c(cc(OC)c(OC)c3OC)O2)cc1` (stereo unspecified), the outcome in the assay on CA-755, with L1210 and with CCRF S-180 was inactive.
